How the values were obtained:
Assay in all cases: Large panel kinase profiling
Type in all cases: biochemical
Conditions in all cases: 1 μM test article, 1 mM ATP
AURKA/AURA = molecular target: T1, AURKA/AURA (Homo sapiens, UniProt O14965)
T1 sequence (O14965 1-403): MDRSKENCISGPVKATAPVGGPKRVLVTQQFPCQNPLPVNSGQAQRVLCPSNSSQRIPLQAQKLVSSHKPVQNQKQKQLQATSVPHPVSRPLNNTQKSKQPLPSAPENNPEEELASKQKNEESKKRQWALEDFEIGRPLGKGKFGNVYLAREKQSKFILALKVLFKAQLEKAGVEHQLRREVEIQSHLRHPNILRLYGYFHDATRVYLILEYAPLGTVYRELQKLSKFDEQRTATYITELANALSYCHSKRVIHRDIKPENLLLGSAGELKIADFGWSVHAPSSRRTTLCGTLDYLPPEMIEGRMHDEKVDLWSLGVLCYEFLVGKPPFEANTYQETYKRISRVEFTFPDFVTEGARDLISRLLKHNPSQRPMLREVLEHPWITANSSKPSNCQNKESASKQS
Outline: (§1)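 With ATP fixed at 1 mM, each kinase was exposed to 1 μM compound in a PhosphoSens CSox-Sensor reaction. Sealed plates were incubated at 30° C. and read in kinetic mode.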

DAPK1 = molecular target: T2, DAPK1 (Homo sapiens, UniProt P53355)
T2 construct: AssayQuant Technologies, Inc. (service laboratory)
T2 sequence (P53355 whole entry, species assumed): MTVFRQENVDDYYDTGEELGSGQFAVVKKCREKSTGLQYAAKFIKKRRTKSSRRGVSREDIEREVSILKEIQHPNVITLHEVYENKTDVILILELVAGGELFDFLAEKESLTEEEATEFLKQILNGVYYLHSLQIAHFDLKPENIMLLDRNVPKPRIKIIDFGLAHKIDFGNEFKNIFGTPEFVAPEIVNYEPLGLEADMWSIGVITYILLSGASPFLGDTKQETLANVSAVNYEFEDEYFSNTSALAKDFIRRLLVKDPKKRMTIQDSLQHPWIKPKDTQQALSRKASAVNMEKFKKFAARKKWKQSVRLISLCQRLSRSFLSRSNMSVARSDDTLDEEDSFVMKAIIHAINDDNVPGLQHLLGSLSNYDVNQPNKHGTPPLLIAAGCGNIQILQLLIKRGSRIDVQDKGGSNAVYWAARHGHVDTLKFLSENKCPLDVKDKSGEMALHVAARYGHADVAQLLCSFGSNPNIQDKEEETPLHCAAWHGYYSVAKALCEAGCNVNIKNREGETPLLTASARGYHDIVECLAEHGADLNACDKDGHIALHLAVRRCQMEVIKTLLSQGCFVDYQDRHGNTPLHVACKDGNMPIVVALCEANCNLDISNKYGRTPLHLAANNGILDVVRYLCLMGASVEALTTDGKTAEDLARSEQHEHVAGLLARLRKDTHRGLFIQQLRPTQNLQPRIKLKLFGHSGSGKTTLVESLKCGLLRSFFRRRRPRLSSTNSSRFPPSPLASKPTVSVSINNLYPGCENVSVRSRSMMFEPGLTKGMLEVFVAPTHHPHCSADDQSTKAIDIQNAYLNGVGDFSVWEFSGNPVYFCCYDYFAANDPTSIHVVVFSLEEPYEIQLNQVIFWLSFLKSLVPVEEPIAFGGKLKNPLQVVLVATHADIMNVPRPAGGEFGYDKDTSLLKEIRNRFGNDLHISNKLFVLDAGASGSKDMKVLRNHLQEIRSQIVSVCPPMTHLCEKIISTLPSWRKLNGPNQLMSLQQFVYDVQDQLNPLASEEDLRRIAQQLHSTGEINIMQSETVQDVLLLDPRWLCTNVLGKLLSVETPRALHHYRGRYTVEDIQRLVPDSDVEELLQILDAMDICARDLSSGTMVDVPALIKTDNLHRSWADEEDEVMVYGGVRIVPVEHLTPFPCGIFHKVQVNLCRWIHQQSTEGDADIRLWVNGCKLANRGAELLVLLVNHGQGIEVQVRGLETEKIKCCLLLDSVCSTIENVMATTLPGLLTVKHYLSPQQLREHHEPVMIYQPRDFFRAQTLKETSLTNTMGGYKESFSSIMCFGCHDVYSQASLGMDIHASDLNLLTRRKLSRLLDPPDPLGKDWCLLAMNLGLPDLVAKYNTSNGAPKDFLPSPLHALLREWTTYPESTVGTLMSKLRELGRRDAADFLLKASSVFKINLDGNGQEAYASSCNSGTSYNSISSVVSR
Outline: as §1

DYRK3 = molecular target: T3, DYRK3 (Homo sapiens, UniProt O43781)
T3 construct: AssayQuant Technologies, Inc. (service laboratory)
T3 sequence (O43781 1-588): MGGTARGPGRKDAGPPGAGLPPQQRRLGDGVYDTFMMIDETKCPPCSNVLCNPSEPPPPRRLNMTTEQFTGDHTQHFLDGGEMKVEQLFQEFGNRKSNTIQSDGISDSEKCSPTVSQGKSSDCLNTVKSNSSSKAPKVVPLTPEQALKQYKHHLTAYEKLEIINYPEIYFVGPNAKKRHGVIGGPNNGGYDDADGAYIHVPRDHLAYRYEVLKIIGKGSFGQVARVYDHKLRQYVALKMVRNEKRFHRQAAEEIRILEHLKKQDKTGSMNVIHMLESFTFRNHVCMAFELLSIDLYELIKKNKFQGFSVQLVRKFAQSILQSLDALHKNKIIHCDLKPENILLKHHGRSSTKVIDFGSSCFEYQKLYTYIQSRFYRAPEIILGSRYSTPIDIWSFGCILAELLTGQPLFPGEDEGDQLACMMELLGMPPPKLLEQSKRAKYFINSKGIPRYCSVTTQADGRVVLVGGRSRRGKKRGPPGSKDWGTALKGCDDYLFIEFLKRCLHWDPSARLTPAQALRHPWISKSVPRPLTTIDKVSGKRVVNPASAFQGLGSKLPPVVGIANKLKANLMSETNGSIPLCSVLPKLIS
Outline: as §1

EIF2AK2/PKR = molecular target: T4, EIF2AK2/PKR (Homo sapiens, UniProt P19525)
T4 construct: AssayQuant Technologies, Inc. (service laboratory)
Outline: as §1

ERN2 = ERN2 (Homo sapiens, UniProt Q76MJ5)
Outline: as §1

MAP3K9 = molecular target: T5, MAP3K9 (Homo sapiens, UniProt P80192)
T5 construct: AssayQuant Technologies, Inc. (service provider)
T5 sequence (P80192 whole entry, species assumed): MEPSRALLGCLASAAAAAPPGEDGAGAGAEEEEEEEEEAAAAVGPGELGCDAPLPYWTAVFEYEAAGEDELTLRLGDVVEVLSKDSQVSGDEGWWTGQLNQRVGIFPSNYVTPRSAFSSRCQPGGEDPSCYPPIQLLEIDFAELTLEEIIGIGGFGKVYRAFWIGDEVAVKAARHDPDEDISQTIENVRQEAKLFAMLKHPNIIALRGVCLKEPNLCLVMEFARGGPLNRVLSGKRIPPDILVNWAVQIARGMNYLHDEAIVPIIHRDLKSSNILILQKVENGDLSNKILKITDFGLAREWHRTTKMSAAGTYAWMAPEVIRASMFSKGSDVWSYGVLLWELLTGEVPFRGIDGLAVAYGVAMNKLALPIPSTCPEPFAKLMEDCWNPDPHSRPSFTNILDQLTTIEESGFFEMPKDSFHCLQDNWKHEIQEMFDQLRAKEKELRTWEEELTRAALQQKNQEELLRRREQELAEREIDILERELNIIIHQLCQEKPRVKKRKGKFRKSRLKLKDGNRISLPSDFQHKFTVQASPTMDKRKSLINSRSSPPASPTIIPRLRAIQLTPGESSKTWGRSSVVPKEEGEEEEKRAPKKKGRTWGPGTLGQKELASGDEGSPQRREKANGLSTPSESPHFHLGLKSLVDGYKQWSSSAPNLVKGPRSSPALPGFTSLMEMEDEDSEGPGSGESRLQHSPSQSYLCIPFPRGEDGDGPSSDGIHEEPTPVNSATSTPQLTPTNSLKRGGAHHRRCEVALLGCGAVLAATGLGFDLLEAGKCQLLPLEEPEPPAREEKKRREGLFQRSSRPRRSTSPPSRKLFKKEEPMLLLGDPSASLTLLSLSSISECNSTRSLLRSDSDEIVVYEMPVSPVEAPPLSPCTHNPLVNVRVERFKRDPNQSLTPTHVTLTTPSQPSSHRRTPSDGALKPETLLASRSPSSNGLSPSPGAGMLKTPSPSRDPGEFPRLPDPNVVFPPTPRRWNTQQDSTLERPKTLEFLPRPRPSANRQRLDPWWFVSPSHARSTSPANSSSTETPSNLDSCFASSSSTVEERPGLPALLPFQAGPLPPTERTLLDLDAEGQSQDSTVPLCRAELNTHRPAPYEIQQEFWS
Outline: as §1

MAPK1/ERK2 = molecular target: T6, MAPK1/ERK2 (Homo sapiens, UniProt P28482)
T6 construct: AssayQuant Technologies, Inc. (service provider)
Outline: as §1

MAPK12/P38G = molecular target: T7, MAPK12/P38G (Homo sapiens, UniProt P53778)
T7 construct: AssayQuant Technologies, Inc. (service provider)
T7 sequence (P53778 1-367): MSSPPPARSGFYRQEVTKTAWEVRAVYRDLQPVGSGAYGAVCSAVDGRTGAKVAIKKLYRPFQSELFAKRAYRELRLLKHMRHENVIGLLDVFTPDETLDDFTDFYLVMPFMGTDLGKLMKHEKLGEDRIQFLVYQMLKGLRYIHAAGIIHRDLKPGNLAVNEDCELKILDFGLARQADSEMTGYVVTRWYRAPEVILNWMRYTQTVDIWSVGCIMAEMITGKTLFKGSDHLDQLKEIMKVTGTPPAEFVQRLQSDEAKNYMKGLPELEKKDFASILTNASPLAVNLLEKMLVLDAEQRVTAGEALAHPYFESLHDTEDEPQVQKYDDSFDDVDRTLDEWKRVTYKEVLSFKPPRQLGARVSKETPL
Outline: as §1

MAPKAPK3/MK3 = molecular target: T8, MAPKAPK3/MK3 (Homo sapiens, UniProt Q16644)
T8 construct: AssayQuant Technologies, Inc. (service provider)
T8 sequence (Q16644 whole entry): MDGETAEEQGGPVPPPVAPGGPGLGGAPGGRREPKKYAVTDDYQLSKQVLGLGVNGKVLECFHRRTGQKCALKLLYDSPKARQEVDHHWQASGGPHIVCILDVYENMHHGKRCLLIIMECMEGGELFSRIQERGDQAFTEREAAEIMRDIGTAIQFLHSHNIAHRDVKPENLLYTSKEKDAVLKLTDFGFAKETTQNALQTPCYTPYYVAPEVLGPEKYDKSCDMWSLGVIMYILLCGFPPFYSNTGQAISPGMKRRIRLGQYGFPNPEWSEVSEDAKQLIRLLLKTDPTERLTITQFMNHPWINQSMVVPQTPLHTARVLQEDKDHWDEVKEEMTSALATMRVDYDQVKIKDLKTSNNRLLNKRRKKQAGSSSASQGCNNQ
Outline: as §1

MAPKAPK5/MK5 = molecular target: T9, MAPKAPK5/MK5 (Homo sapiens, UniProt Q8IW41)
T9 construct: AssayQuant Technologies, Inc. (service provider)
T9 sequence (Q8IW41 1-473): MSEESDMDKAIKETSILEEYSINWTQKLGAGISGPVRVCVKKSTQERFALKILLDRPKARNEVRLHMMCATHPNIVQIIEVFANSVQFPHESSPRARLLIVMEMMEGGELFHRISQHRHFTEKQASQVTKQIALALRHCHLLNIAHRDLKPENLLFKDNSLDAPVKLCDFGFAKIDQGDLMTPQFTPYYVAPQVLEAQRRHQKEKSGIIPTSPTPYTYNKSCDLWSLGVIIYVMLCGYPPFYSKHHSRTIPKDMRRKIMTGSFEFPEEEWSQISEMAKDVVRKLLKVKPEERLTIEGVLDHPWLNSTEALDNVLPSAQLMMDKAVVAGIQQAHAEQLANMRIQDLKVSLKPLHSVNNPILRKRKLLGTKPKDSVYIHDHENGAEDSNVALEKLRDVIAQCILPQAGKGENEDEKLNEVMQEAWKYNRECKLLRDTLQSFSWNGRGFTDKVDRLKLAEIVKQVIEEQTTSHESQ
Outline: as §1

PDGFRA = PDGFRA (Homo sapiens, UniProt P16234)
PDGFRA, sequence (P16234 24-1089, species assumed): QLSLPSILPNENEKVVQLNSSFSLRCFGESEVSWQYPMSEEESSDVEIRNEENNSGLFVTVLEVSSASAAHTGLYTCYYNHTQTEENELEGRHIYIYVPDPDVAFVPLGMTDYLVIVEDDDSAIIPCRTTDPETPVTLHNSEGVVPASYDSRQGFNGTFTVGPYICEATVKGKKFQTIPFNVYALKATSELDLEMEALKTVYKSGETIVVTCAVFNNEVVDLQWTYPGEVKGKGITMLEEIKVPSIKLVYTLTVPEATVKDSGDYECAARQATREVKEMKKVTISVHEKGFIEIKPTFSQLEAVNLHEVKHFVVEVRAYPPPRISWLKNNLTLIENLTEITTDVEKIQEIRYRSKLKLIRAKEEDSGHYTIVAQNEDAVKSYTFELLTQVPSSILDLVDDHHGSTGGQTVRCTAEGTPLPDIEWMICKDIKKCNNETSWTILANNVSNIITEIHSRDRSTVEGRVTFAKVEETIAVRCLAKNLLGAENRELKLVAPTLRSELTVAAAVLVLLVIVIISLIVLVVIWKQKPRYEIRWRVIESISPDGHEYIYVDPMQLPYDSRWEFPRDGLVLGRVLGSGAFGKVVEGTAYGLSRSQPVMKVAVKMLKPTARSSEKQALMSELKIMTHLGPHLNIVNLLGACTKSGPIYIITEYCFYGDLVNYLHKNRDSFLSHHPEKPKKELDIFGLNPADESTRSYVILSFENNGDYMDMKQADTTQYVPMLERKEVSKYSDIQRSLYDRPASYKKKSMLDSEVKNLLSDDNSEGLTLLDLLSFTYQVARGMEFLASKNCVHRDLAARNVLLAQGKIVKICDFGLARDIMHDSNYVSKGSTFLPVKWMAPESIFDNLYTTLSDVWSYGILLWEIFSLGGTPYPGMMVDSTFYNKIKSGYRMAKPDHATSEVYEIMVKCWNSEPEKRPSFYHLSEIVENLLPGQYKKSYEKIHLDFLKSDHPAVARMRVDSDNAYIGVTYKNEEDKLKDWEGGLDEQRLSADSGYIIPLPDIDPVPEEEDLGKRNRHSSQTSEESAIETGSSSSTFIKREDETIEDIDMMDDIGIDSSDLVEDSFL
Outline: as §1

TEK/TIE2 = molecular target: T10, TEK/TIE2 (Homo sapiens, UniProt Q02763)
T10 construct: AssayQuant Technologies, Inc. (contract laboratory that ran the panel)
T10 sequence (Q02763 23-1124): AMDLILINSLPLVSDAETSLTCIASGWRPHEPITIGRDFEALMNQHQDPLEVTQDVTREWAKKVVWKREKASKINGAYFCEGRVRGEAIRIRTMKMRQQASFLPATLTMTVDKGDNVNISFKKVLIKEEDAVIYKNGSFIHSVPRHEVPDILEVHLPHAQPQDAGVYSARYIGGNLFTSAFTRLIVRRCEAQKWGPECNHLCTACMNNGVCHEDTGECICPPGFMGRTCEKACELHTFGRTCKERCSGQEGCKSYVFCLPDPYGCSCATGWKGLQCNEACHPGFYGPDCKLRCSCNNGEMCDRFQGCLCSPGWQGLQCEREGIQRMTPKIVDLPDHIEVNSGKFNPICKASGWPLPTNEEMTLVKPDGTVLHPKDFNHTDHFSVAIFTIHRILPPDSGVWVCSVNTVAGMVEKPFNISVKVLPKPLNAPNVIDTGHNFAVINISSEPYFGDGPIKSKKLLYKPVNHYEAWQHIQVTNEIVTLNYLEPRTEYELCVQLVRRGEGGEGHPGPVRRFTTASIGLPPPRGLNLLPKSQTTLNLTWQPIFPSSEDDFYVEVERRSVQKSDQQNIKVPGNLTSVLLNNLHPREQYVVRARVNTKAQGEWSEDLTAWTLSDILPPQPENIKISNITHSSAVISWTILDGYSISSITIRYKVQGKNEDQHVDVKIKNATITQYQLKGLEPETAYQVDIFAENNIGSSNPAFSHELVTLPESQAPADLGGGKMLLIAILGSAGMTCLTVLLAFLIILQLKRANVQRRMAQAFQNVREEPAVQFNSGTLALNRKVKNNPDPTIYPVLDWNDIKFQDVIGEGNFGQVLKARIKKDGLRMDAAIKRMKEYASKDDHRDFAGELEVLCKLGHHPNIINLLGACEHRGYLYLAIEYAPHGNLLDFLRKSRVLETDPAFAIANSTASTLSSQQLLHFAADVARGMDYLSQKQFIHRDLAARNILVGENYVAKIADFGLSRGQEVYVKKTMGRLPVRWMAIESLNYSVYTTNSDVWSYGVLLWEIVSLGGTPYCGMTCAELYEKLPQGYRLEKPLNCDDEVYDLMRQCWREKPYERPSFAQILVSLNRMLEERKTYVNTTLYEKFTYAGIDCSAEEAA
Outline: as §1

| SMILES | inhibition at 1 µM (AURKA/AURA) [%] | inhibition at 1 µM (DAPK1) [%] | inhibition at 1 µM (DYRK3) [%] | inhibition at 1 µM (EIF2AK2/PKR) [%] | inhibition at 1 µM (ERN2) [%] | inhibition at 1 µM (MAP3K9) [%] | inhibition at 1 µM (MAPK1/ERK2) [%] | inhibition at 1 µM (MAPK12/P38G) [%] | inhibition at 1 µM (MAPKAPK3/MK3) [%] | inhibition at 1 µM (MAPKAPK5/MK5) [%] | inhibition at 1 µM (PDGFRA) [%] | inhibition at 1 µM (TEK/TIE2) [%] |
| --- | --- | --- | --- | --- | --- | --- | --- | --- | --- | --- | --- | --- |
| C=CC(=O)N1CCCC(c2c(F)cc(C(N)=O)c3[nH]c4c(c23)CCCCC4)C1 (single isomer, unassigned) [Compound 5-6] | -42 | 8.1 | 2.8 | -28 | -8 | -0.9 | -4.4 | -1.9 | 2.1 | 3.7 | -26.6 | -11.2 |
| C=CC(=O)N1CCC[C@@H](c2c(F)cc(C(N)=O)c3[nH]c4c(c23)CCC4)C1 [Compound 10-2, (S)-8-(1-acryloylpiperidin-3-yl)-7-fluoro-1,2,3,4-tetrahydrocyclo-penta[b]indole-5-carboxamide] | -12.1 | -20.3 | -3.3 | 65.5 | -7.1 | 12.3 | -8.8 | 4.2 | -42.3 | -12.6 | 2.1 | -15.2 |
| C=CC(=O)N1CCC[C@@H](c2c(F)cc(C(N)=O)c3[nH]c4c(c23)CC2(CC4)CC2)C1 [Compound 6-2, (S)-5-(1-acryloylpiperidin-3-yl)-6-fluoro-1,2,4,9-tetrahydrospiro[carbazole-3,1′-cyclopropane]-8-carboxamide] | -24.7 | 22.1 | -4.9 | -1.6 | -14.6 | 28.8 | -3.8 | 31.3 | 1.5 | 8.6 | 23.9 | 4.6 |
